Consider 24 molecules from PubChem BioAssay AID256 (DTP/NCI, 2004).

Where “and” joins values, the source holds several entries; their conditions need not be identical. Identical values can stand only once. Toxic doses and inconclusive results are not listed.

In the test the test system is CD2F1 mice, L1210 leukemia ip, survival T/C. Kind of test: NCI In Vivo Anticancer Drug Screen. Data for tumor model L1210 Leukemia (intraperitoneal) in CD2F1 (CDF1) mice. The note with it: higher = longer survival. The procedure, abridged: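 Activity against a transplanted murine tumor was judged by comparing the compound group with a vehicle group. The outcome in the treated animals was divided by that in the controls.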

Where [1] appears, read: endpoint: mean survival time, dose: 25.0 mg/kg/injection, schedule: Q04DX002 (ip), vehicle: saline with Tween-80.
The mark [2] stands for this setting: endpoint: mean survival time, dose: 200.0 mg/kg/injection, schedule: Q04DX002 (ip), vehicle: saline with Tween-80.
[3] abbreviates: endpoint: mean survival time, dose: 100.0 mg/kg/injection, schedule: Q04DX003 (ip), vehicle: saline with Tween-80.
[4] abbreviates: endpoint: mean survival time, dose: 200.0 mg/kg/injection, schedule: Q04DX003 (ip), vehicle: saline with Tween-80.
The mark [5] stands for this setting: endpoint: mean survival time, dose: 400.0 mg/kg/injection, schedule: Q04DX003 (ip), vehicle: saline with Tween-80.
[6] abbreviates: endpoint: mean survival time, dose: 100.0 mg/kg/injection, schedule: Q01DX001 (ip), vehicle: saline with Tween-80.
Setting [7] is: endpoint: mean survival time, dose: 200.0 mg/kg/injection, schedule: Q01DX001 (ip), vehicle: saline with Tween-80.
Where [8] appears, read: endpoint: mean survival time, dose: 400.0 mg/kg/injection, schedule: Q01DX001 (ip), vehicle: saline with Tween-80.
Where [9] appears, read: endpoint: mean survival time, dose: 6.25 mg/kg/injection, schedule: Q01DX009 (ip), vehicle: saline with Tween-80.
[10] abbreviates: endpoint: mean survival time, dose: 12.5 mg/kg/injection, schedule: Q01DX009 (ip), vehicle: saline with Tween-80.
Setting [11] is: endpoint: mean survival time, dose: 50.0 mg/kg/injection, schedule: Q04DX002 (ip), vehicle: saline with Tween-80.
Where [12] appears, read: endpoint: mean survival time, dose: 25.0 mg/kg/injection, schedule: Q04DX003 (ip), vehicle: saline with Tween-80.
Setting [13] is: endpoint: mean survival time, dose: 100.0 mg/kg/injection, schedule: Q01DX001 (ip), vehicle: saline.
The mark [14] stands for this setting: endpoint: mean survival time, dose: 200.0 mg/kg/injection, schedule: Q01DX001 (ip), vehicle: saline.
[15] abbreviates: endpoint: mean survival time, dose: 100.0 mg/kg/injection, schedule: Q01DX009 (ip), vehicle: saline with Tween-80.
[16] abbreviates: endpoint: mean survival time, dose: 200.0 mg/kg/injection, schedule: Q01DX009 (ip), vehicle: saline with Tween-80.
Where [17] appears, read: endpoint: mean survival time, dose: 400.0 mg/kg/injection, schedule: Q01DX009 (ip), vehicle: saline with Tween-80.
Setting [18] is: endpoint: mean survival time, dose: 400.0 mg/kg/injection, schedule: Q01DX001 (ip), vehicle: saline.

As for `COc1ccc(C2=CC(c3ccccc3)C(c3ccccc3)C(=O)N2)cc1` (centres undefined), the T/C was 98 % of control under setting [1]; 97 % of control under setting [2]; 90 % of control (endpoint: mean survival time, dose: 400.0 mg/kg/injection, schedule: Q04DX002 (ip), vehicle: saline with Tween-80).

As for `C=C(C)C1(Cc2ccccc2)C(=O)NC(=O)NC1=O`, the T/C (endpoint: mean survival time, dose: 5.0 mg/kg/injection, schedule: Q01DX001 (ip), vehicle: saline) was 100 % of control; the T/C (endpoint: mean survival time, dose: 10.0 mg/kg/injection, schedule: Q01DX001 (ip), vehicle: saline) was 97 % of control; the T/C (endpoint: mean survival time, dose: 20.0 mg/kg/injection, schedule: Q01DX001 (ip), vehicle: saline) was 100 % of control; the T/C (endpoint: mean survival time, dose: 40.0 mg/kg/injection, schedule: Q01DX001 (ip), vehicle: saline) is 102 % of control.

With `O=C(/C=C1/OCCN1C(=O)Nc1ccccc1)Nc1ccccc1`, the T/C by setting is: under setting [3], 107 % of control; under setting [4], 103 % of control; under setting [5], 97 % of control.

For the molecule `c1ccc(C[N+]23CCN(CC2)CC3)cc1`, the T/C is, setting by setting: (endpoint: mean survival time, dose: 12.5 mg/kg/injection, schedule: Q04DX003 (ip), vehicle: saline) 98 % of control; (endpoint: mean survival time, dose: 25.0 mg/kg/injection, schedule: Q04DX003 (ip), vehicle: saline) 98 % of control; (endpoint: mean survival time, dose: 50.0 mg/kg/injection, schedule: Q04DX003 (ip), vehicle: saline) 101 % of control.

As for `O=C(N/N=C\c1ccc(Cl)cc1)C(=O)N/N=C\c1ccc(Cl)cc1`, the T/C under setting [6] is 106 % of control, the T/C under setting [7] is 92 % of control and the T/C under setting [8] is 89 % of control.

In the case of `CC[C@@]1(OC(=O)CCC(=O)O)C(=O)OCc2c1cc1n(c2=O)Cc2cc3ccccc3nc2-1`, the T/C is 118 % of control (endpoint: median survival time, dose: 5.86 mg/kg/injection, schedule: Q04DX002 (ip), vehicle: water); 154 % of control (endpoint: median survival time, dose: 8.79 mg/kg/injection, schedule: Q04HX004 (iv), vehicle: water); 120 % of control (endpoint: median survival time, dose: 11.73 mg/kg/injection, schedule: Q04DX002 (ip), vehicle: water); 167 % of control and 180 % of control (endpoint: median survival time, dose: 17.59 mg/kg/injection, schedule: Q04HX004 (iv), vehicle: water); 197 % of control and 228 % of control (endpoint: median survival time, dose: 35.18 mg/kg/injection, schedule: Q04HX004 (iv), vehicle: water); 192 % of control and 200 % of control (endpoint: median survival time, dose: 46.9 mg/kg/injection, schedule: Q04DX002 (ip), vehicle: water). Moreover, under “endpoint: median survival time, dose: 93.8 mg/kg/injection, schedule: Q04DX002 (ip), vehicle: water”, the T/C was 231 % of control.

Consider `Cc1cc(N(CCOS(C)(=O)=O)CCOS(C)(=O)=O)ccc1C=Nc1ccc(-c2csc(Cc3ccccc3)n2)cc1`, for which the T/C is, setting by setting: under setting [9], 102 % of control; under setting [10], 105 % of control.

Regarding `CCCc1cc(CCC)n2nc(N)nc2n1`, the T/C was 96 % of control under setting [3], 94 % of control under setting [4] and 94 % of control under setting [5].

Consider `O=C(CCl)NC12Nc3ccccc3C1(Cc1ccccc1)CN(C1CCCCC1)C2=O` (centres undefined), for which the T/C reads like this: under setting [11], 95 % of control; under setting [6], 100 % of control; under setting [7], 86 % of control; under setting [2], 89 % of control.

As for `CCOC(=O)CC(=O)C(F)(F)F.CCOC(=O)CC(=O)C(F)(F)F.[Ni]`, for the setting “endpoint: mean survival time, dose: 150.0 mg/kg/injection, schedule: Q01DX001 (ip), vehicle: saline”, the T/C is 115 % of control.

In the case of `CCSC(SCC)C(O)C(O)C1COC(C)(C)O1` (centres undefined), the T/C is, setting by setting: under setting [6], 93 % of control; under setting [7], 93 % of control; under setting [8], 101 % of control.

Turning to `COc1cc(NC(=O)Nc2ccccc2Cl)c(OC)cc1Cl`, the T/C was 98 % of control under setting [1]; 94 % of control under setting [11]; 102 % of control (endpoint: mean survival time, dose: 100.0 mg/kg/injection, schedule: Q04DX002 (ip), vehicle: saline with Tween-80).

In the case of `COc1ccccc1OC(=O)Nc1ccccc1F`, the T/C under setting [3] was 101 % of control, the T/C under setting [4] was 97 % of control and the T/C under setting [5] was 101 % of control.

Take `ON(C(=Nc1ccccc1)c1ccccc1Cl)c1ccccc1`: the T/C is 106 % of control under setting [9]; 102 % of control (endpoint: mean survival time, dose: 6.25 mg/kg/injection, schedule: Q04DX003 (ip), vehicle: saline with Tween-80); 101 % of control under setting [10]; 104 % of control (endpoint: mean survival time, dose: 12.5 mg/kg/injection, schedule: Q04DX003 (ip), vehicle: saline with Tween-80); 102 % of control under setting [12]; 102 % of control under setting [13]. In addition, the T/C under setting [14] was 102 % of control.

In the case of `CCCC(C(=O)O)C(CCC)C(=O)O` (centres undefined), the T/C under setting [3] was 96 % of control, the T/C under setting [4] is 104 % of control and the T/C under setting [5] was 101 % of control.

For `CC(C)C(Br)C(=O)NCC(=O)O` (centres undefined), the T/C runs as follows: under setting [15], 103 % of control; under setting [16], 97 % of control; under setting [17], 98 % of control.

`CCc1ccc(C2=C(O)C(=O)C(c3ccccc3)=C(O)C2=O)cc1`: the T/C by setting is: (endpoint: mean survival time, dose: 3.12 mg/kg/injection, schedule: Q01DX009 (ip), vehicle: Klucel (hydroxypropylcellulose) (HPC)) 97 % of control; (endpoint: mean survival time, dose: 6.25 mg/kg/injection, schedule: Q01DX009 (ip), vehicle: Klucel (hydroxypropylcellulose) (HPC)) 100 % of control; (endpoint: mean survival time, dose: 12.5 mg/kg/injection, schedule: Q01DX009 (ip), vehicle: Klucel (hydroxypropylcellulose) (HPC)) 100 % of control; (endpoint: mean survival time, dose: 25.0 mg/kg/injection, schedule: Q01DX009 (ip), vehicle: Klucel (hydroxypropylcellulose) (HPC)) 97 % of control; (endpoint: mean survival time, dose: 50.0 mg/kg/injection, schedule: Q01DX009 (ip), vehicle: Klucel (hydroxypropylcellulose) (HPC)) 100 % of control; (endpoint: mean survival time, dose: 100.0 mg/kg/injection, schedule: Q01DX009 (ip), vehicle: Klucel (hydroxypropylcellulose) (HPC)) 95 % of control.

Consider `CC(C)OC(=O)Nc1cc(C(F)(F)F)cc(C(F)(F)F)c1`, for which the T/C is 113 % of control under setting [15], 94 % of control under setting [16] and 92 % of control under setting [17].

Consider `O=[N+]([O-])c1cccc(N=Cc2ccc3c(c2)OCO3)c1`, for which the T/C was 105 % of control (endpoint: mean survival time, dose: 100.0 mg/kg/injection, schedule: Q04DX003 (ip), vehicle: alcohol); 108 % of control (endpoint: mean survival time, dose: 200.0 mg/kg/injection, schedule: Q04DX003 (ip), vehicle: alcohol); 97 % of control (endpoint: mean survival time, dose: 400.0 mg/kg/injection, schedule: Q04DX003 (ip), vehicle: alcohol).

For the molecule `CC1CC(C)(C)CC2(C1)OCC(CCl)O2` (centres undefined), the T/C (endpoint: mean survival time, dose: 100.0 mg/kg/injection, schedule: Q01DX009 (ip), vehicle: saline sonified) was 95 % of control; the T/C (endpoint: mean survival time, dose: 200.0 mg/kg/injection, schedule: Q01DX009 (ip), vehicle: saline sonified) was 87 % of control; the T/C (endpoint: mean survival time, dose: 400.0 mg/kg/injection, schedule: Q01DX009 (ip), vehicle: saline sonified) is 106 % of control.

Consider `CCCCCCCCCCCCCC(CCCCCCCCCC)CCCCCCCCCC`, for which the T/C was 98 % of control under setting [6], 103 % of control under setting [7] and 104 % of control under setting [8].

For `C(=N\C(/N=C/c1ccccc1)c1ccccc1)/c1ccccc1`, the T/C is 100 % of control under setting [13], 103 % of control under setting [14] and 106 % of control under setting [18].

For `CCOC(=O)Nc1cc2c3ccccc3ncc2c2ccccc12`, the T/C runs as follows: under setting [12], 94 % of control; (endpoint: mean survival time, dose: 50.0 mg/kg/injection, schedule: Q04DX003 (ip), vehicle: saline with Tween-80) 86 % of control; under setting [3], 87 % of control; under setting [4], 89 % of control; under setting [5], 101 % of control.

With `O=C(O)C1C2c3ccccc3C(C1C(=O)O)[n+]1ccccc12` (centres undefined), the T/C is 96 % of control under setting [13], 102 % of control under setting [14] and 93 % of control under setting [18].
